Drawing on patent US11504367B2, “Compounds and methods for treating oxalate-related diseases” (OxaluRx, Inc., priority 2019, dated 2022), this text covers IC50 for 30 compounds.

Chain of recombinant full-length human hydroxyacid oxidase 1 (HAO1), the equivalents of hGOX (Q9UJM8 whole entry): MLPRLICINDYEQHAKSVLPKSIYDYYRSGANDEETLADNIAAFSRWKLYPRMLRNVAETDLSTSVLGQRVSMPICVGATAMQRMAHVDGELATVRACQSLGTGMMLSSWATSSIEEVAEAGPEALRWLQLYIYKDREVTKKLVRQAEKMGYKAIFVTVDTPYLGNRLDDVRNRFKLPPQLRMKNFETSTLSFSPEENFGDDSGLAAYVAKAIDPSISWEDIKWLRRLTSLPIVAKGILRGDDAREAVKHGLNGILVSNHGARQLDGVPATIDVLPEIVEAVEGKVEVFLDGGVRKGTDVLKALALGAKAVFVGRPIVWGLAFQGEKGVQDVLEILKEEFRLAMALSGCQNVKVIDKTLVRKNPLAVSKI

In the experiment the target is recombinant full-length human hydroxyacid oxidase 1 (HAO1), the equivalents of hGOX (Homo sapiens (Human), UniProt Q9UJM8). The experiment can be described thus: In-vitro human glycolate oxidase (hGOX) assay (Amplex red fluorescence). The note with it: 6 nM recombinant human GO, 85 μM glycolate, 10 min preincubation. The experiment is classed as biochemical. The protocol:
The in-vitro glycolate oxidase assay was performed using recombinant full-length human hydroxyacid oxidase 1 (HAO1), the equivalents of hGOX. […] Purified HAO1 was dissolved in assay buffer consisting of 10 mM NaCl, 110 mM KCl, 2 mM MgCl2, 50 mM HEPES (pH 7.4), and 0.01% Triton™ X-100.
The plates were incubated for 10 min at room temperature, at which point Amplex red reagent (50 μM) was added.
The fluorescence intensity signal was measured on a VariosKan LUX instrument using an excitation of 560 nm and an emission of 590 nm. The IC50 values were calculated using Graphpad Prism. The fluorescence signal of wells containing only DMSO was defined as 100% GO activity, while the fluorescence signal without the glycolate substrate was defined as 0% GO activity.
Usually IC50 stands for the point on the concentration scale where inhibition reaches its midpoint. With `CS(=O)(=O)c1cccc(C#Cc2cc(Oc3[nH]nnc3C(=O)O)ccc2F)c1` [Example 267, 5-(4-Fluoro-3-(2-(3-(methylsulfonyl)phenyl)ethynyl)phenoxy)-1H-1,2,3-triazole-4-carboxylic Acid], the IC50 came to 2 nM.
As to `CC#Cc1ccc(Oc2[nH]nnc2C(=O)O)cc1` [Example 5, 5-(4-(Prop-1-ynyl)phenoxy)-1H-1,2,3-triazole-4-carboxylic Acid], the concentration for half-maximal inhibition (IC50) worked out at 12 nM.
For `Cn1ncc2c(C#Cc3ccc(Oc4[nH]nnc4C(=O)O)cc3)cccc21` [Example 314, 5-(4-(2-(1-Methyl-1H-indazol-4-yl)ethynyl)phenoxy)-1H-1,2,3-triazole-4-carboxylic Acid], the IC50 is 3 nM.
Regarding `COc1cc(C#Cc2ccc(Oc3[nH]nnc3C(=O)O)cc2)ccn1` [Example 283, 5-(4-(2-(2-Methoxypyridin-4-yl)ethynyl)phenoxy)-1H-1,2,3-triazole-4-carboxylic Acid], the IC50 stood at 3 nM.
With `O=C(O)c1nn[nH]c1Oc1ccc(C#CCc2ccccc2)cc1` [Example 348, 5-(4-(3-Phenylprop-1-ynyl)phenoxy)-1H-1,2,3-triazole-4-carboxylic Acid], the IC50 is 5 nM.
Under `Cn1ncc2cc(C#Cc3ccc(Oc4[nH]nnc4C(=O)O)cc3)ccc21` [Example 316, 5-(4-(2-(1-Methyl-1H-indazol-5-yl)ethynyl)phenoxy)-1H-1,2,3-triazole-4-carboxylic Acid] stands 2 nM.
`O=C(O)c1nn[nH]c1Oc1cccc(C#CC2CCCCC2)c1` [Example 37, 5-(3-(2-Cyclohexylethynyl)phenoxy)-1H-1,2,3-triazole-4-carboxylic Acid]: the half-inhibitory concentration (IC50) turned out to be 8 nM.
For `O=C(O)c1nn[nH]c1Oc1ccc(C#Cc2ccc3[nH]ncc3c2)cc1` [Example 108, 5-(4-(2-(1H-Indazol-5-yl)ethynyl)phenoxy)-1H-1,2,3-triazole-4-carboxylic Acid], the IC50 worked out at 1 nM.
`CCOC(=O)c1c(Oc2ccc(C#CCC3CC3)cc2)n[nH]c1C` [Example 360, Ethyl 3-(4-(3-cyclopropylprop-1-ynyl)phenoxy)-5-methyl-1H-pyrazole-4-carboxylate]: the IC50 was greater than 1000 nM.
Take `CCOC(=O)c1nn[nH]c1Oc1cccc(C#CCC2CC2)c1` [Example 357, Ethyl 5-(3-(3-cyclopropylprop-1-ynyl)phenoxy)-1H-1,2,3-triazole-4-carboxylate]: the half-inhibitory concentration (IC50) was greater than 1000 nM.
On to `O=C(O)c1nn[nH]c1Oc1ccc(C#Cc2ccc(F)cc2)cc1` [Example 288, 5-(4-(2-(4-Fluorophenyl)ethynyl)phenoxy)-1H-1,2,3-triazole-4-carboxylic Acid], for which the IC50 is 1 nM.
Regarding `CS(=O)(=O)c1cccc(C#Cc2ccc(Oc3[nH]nnc3C(=O)O)cc2F)c1` [Example 273, 5-(3-Fluoro-4-(2-(3-(methylsulfonyl)phenyl)ethynyl)phenoxy)-1H-1,2,3-triazole-4-carboxylic Acid], the IC50 was determined as 2 nM.
As to `O=C(O)c1nn[nH]c1Oc1ccc(C#CCc2ccc(F)cc2)cc1` [Example 353, 5-(4-(3-(4-fluorophenyl)prop-1-ynyl)phenoxy)-1H-1,2,3-triazole-4-carboxylic Acid], the IC50 amounted to 3 nM.
Regarding `O=C(O)c1nn[nH]c1Oc1ccc(C#Cc2cccnc2)cc1` [Example 309, 5-(4-(2-(Pyridin-3-yl)ethynyl)phenoxy)-1H-1,2,3-triazole-4-carboxylic Acid], the IC50 amounted to 3 nM.
For the compound `Cn1ccc(C#Cc2cccc(Oc3[nH]nnc3C(=O)O)c2)cc1=O` [Example 257, 4-(3-((1-Methyl-2-oxo-1,2-dihydropyridin-4-yl)ethynyl)phenoxy)-1H-1,2,3-triazole-5-carboxylic Acid], the IC50 came out at 1 nM.
Consider `O=C(O)c1nn[nH]c1Oc1cccc(C#Cc2ccc(Cl)cc2)c1` [Example 292, 5-(3-(2-(4-Chlorophenyl)ethynyl)phenoxy)-1H-1,2,3-triazole-4-carboxylic Acid], for which the concentration for half-maximal inhibition (IC50) came out at 2 nM.
Under `CCOC(=O)c1nn[nH]c1[S+]([O-])c1cccc(C#CCC(C)C)c1` (stereo not drawn) [Example 373, Ethyl 5-(3-(4-methylpent-1-ynyl)phenylsulfinyl)-1H-1,2,3-triazole-4-carboxylate] stands greater than 1000 nM; under `O=C(O)c1ccc(C#Cc2cc(F)cc(Oc3[nH]nnc3C(=O)O)c2)cc1` [Example 265, 5-(3-Fluoro-5-(2-(4-carboxyphenyl)ethynyl)phenoxy)-1H-1,2,3-triazole-4-carboxylic Acid], 3 nM.
Consider `COc1ccc(C#Cc2ccc(Oc3[nH]nnc3C(=O)O)cc2)cc1` [Example 280, 5-(4-(2-(4-Methoxyphenyl)ethynyl)phenoxy)-1H-1,2,3-triazole-4-carboxylic Acid], for which the IC50 was 4 nM.
Next, `CS(=O)(=O)c1cccc(C#Cc2ccc(Oc3[nH]nnc3C(=O)O)cc2)c1` [Example 254, 5-(4-(2-(3-(Methylsulfonyl)phenyl)ethynyl)phenoxy)-1H-1,2,3-triazole-4-carboxylic Acid]: 3 nM; `COc1cccc(C#Cc2ccc(Oc3[nH]nnc3C(=O)O)cc2)c1` [Example 286, 5-(4-(2-(3-Methoxyphenyl)ethynyl)phenoxy)-1H-1,2,3-triazole-4-carboxylic Acid]: 2 nM; `O=C(O)c1nn[nH]c1Oc1ccc(C#Cc2cn[nH]c2)cc1` [Example 178, 5-(4-(2-(1H-Pyrazol-4-yl)ethynyl)phenoxy)-1H-1,2,3-triazole-4-carboxylic Acid]: 6 nM.
As for `O=C(O)c1nn[nH]c1Oc1ccc(C#Cc2cccc(Cl)c2)cc1` [Example 291, 5-(4-(2-(3-Chlorophenyl)ethynyl)phenoxy)-1H-1,2,3-triazole-4-carboxylic Acid], the IC50 was 0.3 nM.
Under `O=C(O)c1nn[nH]c1Oc1cccc(C#Cc2ncccn2)c1` [Example 165, 5-(3-(2-(Pyrimidin-2-yl)ethynyl)phenoxy)-1H-1,2,3-triazole-4-carboxylic Acid] stands 6 nM; under `Cc1ccc(C#Cc2ccc(Oc3[nH]nnc3C(=O)O)cc2)cn1` [Example 297, 5-(4-(2-(6-Methylpyridin-3-yl)ethynyl)phenoxy)-1H-1,2,3-triazole-4-carboxylic Acid], 3 nM.
Next, `O=C(O)c1nn[nH]c1Oc1ccc(C#Cc2cccc(F)c2)cc1` [Example 278, 5-(4-(2-(3-Fluorophenyl)ethynyl)phenoxy)-1H-1,2,3-triazole-4-carboxylic Acid]: 1 nM; `O=C(O)c1nn[nH]c1Oc1cccc(C#Cc2cn[nH]c2)c1` [Example 320, 5-(3-(2-(1H-Pyrazol-4-yl)ethynyl)phenoxy)-1H-1,2,3-triazole-4-carboxylic Acid]: 6 nM; `COc1cc(C#Cc2cccc(Oc3[nH]nnc3C(=O)O)c2)ccn1` [Example 285, 5-(3-(2-(2-Methoxypyridin-4-yl)ethynyl)phenoxy)-1H-1,2,3-triazole-4-carboxylic Acid]: 3 nM.
For the compound `CCOC(=O)c1nn[nH]c1Oc1cccc(C#CCC(C)C)c1` [Example 366, Ethyl 5-(3-(4-methylpent-1-ynyl)phenoxy)-1H-1,2,3-triazole-4-carboxylate], the IC50 was greater than 1000 nM.
In the case of `O=C(O)c1nn[nH]c1Oc1ccc(C#Cc2ccncc2)cc1` [Example 310, 5-(4-(2-(Pyridin-4-yl)ethynyl)phenoxy)-1H-1,2,3-triazole-4-carboxylic Acid], the IC50 is 4 nM.
